According to patent publication US7763601B2, “Prevention and treatment of obesity” (N-Gene Research Laboratories, Inc., priority 2006, dated 2010):

What was measured:
female Wistar rats [1] = assay: Body weight gain induced by olanzapine in rats, 28 days; type: in vivo, rat; details: for Body weight (average in the group): day 28, control 255 g
Experimental: Groups of female Wistar rats were treated with vehicle (control group) and the agents to be tested for 28 days. Each group consisted of 6 animals fed with normal laboratory chow and tap water ad libitum. The agents to be tested were administered twice daily, at 8 h and 18 h, perorally. The antipsychotic olanzapine was administered in a dose of 1 mg/kg to induce body weight gain.

female NMRI mice = assay: Body weight gain induced by olanzapine or clozapine in mice, 15 days; type: in vivo, mouse; details: agent alone p.o. for 15 days (olanzapine 0.5, clozapine 1, BGP-15 10 mg/kg); between first and 15th day; control 2.98 g
Experimental: Groups of female NMRI mice were treated with vehicle (control group) and the agents to be tested for 15 days, perorally. Each group consisted of 10 animals fed with normal laboratory chow and tap water ad libitum. Treatments were performed between 5 and 6 pm, shortly before the dark phase, the primary feeding period of the day. Olanzapine was administered in a dose of 0.5 mg/kg, while clozapine was administered in a dose of 1 mg/kg to induce body weight gain.

female Wistar rats [2] = assay: Body weight gain induced by risperidone in rats, 21 days; type: in vivo, rat; details: for Body weight gain: day 21, control 27 g
Experimental: The experiments were carried out in eight-week-old female Wistar rats. Each test group consisted of 10 animals fed with normal laboratory chow and tap water ad libitum. The animals were treated with vehicle (control group) and the compounds to be tested for 21 days. In this experimental system, the antipsychotic risperidone was injected subcutaneously once daily in doses of 0.005 and 0.05 mg/kg, respectively to induce body weight gain.

[3] = agent alone, p.o. twice daily for 28 days (olanzapine 1, BGP-15 10, metformin 100, rosiglitazone 3 mg/kg), starting weight 171 g
[4] = agent together with olanzapine 1 mg/kg, p.o. twice daily for 28 days (BGP-15 10, metformin 100, rosiglitazone 3 mg/kg), olanzapine alone 330 g

SMILES | Body weight (average in the group) (female Wistar rats [1]; [3]) | Body weight (average in the group) (female Wistar rats [1]; [4]) | Body weight gain (average in the group) (female NMRI mice) | effect on average weight relative to the control group (female Wistar rats [1]; agent alone, 28 days) | other results
CN(CCOc1ccc(CC2SC(=O)NC2=O)cc1)c1ccccn1 (stereo not shown) [Rosiglitazone, rosiglitazone] | 284 g | 359 g | – | – | –
Cc1cc2c(s1)Nc1ccccc1N=C2N1CCN(C)CC1 [Olanzapine, 2-methyl-4-(4-methyl-1-piperazinyl)-10H-thieno[2,3-b][1,5]-benzodiazepine] | 330 g | – | 3.5 g | high average weight relative to the control group | –
CN(C)C(=N)N=C(N)N [Metformin, metformin] | 266 g | 331 g | – | somewhat higher average weight relative to the control group | effect on the weight gain induced by olanzapine (female Wistar rats [1]; agent together with olanzapine 1 mg/kg, 28 days): did not reduce
CN1CCN(C2=Nc3cc(Cl)ccc3Nc3ccccc32)CC1 [Clozapine, 8-chloro-11-(4-methyl-1-piperazinyl)-5H-dibenzo[b,e][1,4]diazepine] | – | – | 4.11 g | – | –
Cc1nc2n(c(=O)c1CCN1CCC(c3noc4cc(F)ccc34)CC1)CCCC2 [Risperidone, risperidone] | – | – | – | – | effect on body weight gain relative to the control group (female Wistar rats [2]; agent alone, 21 days): increased body weight gain relative to the control group; Body weight gain (female Wistar rats [2]; risperidone alone 0.005 mg/kg s.c. once daily): 39.7 g; Body weight gain (female Wistar rats [2]; risperidone alone 0.05 mg/kg s.c. once daily): 41 g
